In publication PMC9674830, “A glutamine-based single α-helix scaffold to target globular proteins” (Nature Communications, 2022):

Biological target: T1, RAP74-CTD (Homo sapiens, UniProt P35269)
T1 construct: spanning residues 450-517; His6-MBP (with TEV site) (N, cleaved yes); made in house; host or cells: E. coli Rosetta (DE3)pLysS
T1 sequence (P35269 450-517): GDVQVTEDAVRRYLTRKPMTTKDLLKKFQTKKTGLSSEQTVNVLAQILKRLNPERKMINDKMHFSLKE
Experiment: NMR chemical shift perturbation titration of peptides into 15N RAP74-CTD (KD)
Assay type: binding
Conditions: 15 molar equivalents of peptide, NMR
Description: Recombinant samples with ^15N isotope enrichment of the C-terminal domain of subunit 1 of the general transcription regulator TFIIF (RAP74-CTD), spanning residues 450-517, were obtained as described previously. A codon-optimized synthetic gene cloned in a pDONR221 vector was obtained from GeneArt (Thermo Fisher Scientific, Waltham, MA, USA) and subcloned into a pDEST-His6MBP vector obtained from Addgene. Rosetta (DE3)pLysS competent cells (Novagen, Merck KGaA, Darmstadt, Germany) were grown in MOPS medium with ^15NH4Cl as the only nitrogen source (310 K, induction at OD600 = 0.7, 1 mM IPTG, harvesting 3 h after induction). Soluble fractions of cell lysates from sonication in lysis buffer (50 mM Tris-HCl, 1 M NaCl, 10 mM imidazole, pH 8.0) were purified by IMAC, and fractions containing the His6MBP-TEV-RAP74-CTD fusion were dialyzed at 277 K overnight against cleavage buffer (50 mM Tris-HCl, 200 mM NaCl, 0.5 mM EDTA, pH 8.0) in the presence of TEV protease (50 μg/mL). A second IMAC step was performed and the flow-through containing the RAP-CTD was loaded onto a HiTrap SP HP cation exchange column followed by a size exclusion chromatography step on a Superdex 75 GL 10/300 column equilibrated with NMR buffer (20 mM sodium phosphate, 0.1% trifluoroacetic acid, pH 7.4), both mounted in an Äkta Purifier System (GE Healthcare, Chicago, IL, USA). The sample was concentrated to 100 μM using an Amicon Ultra 15 mL centrifugal filter (Merck KGaA, Darmstadt, Germany).
Before the experiment, both the protein and the peptide were dialyzed (277 K, two dialysis steps) in the same preparation of NMR buffer (20 mM sodium phosphate, 0.1% trifluoroacetic acid, pH 7.4), using a Pur-A-Lyzer (Sigma-Aldrich, Burlington, MA, USA) and a Micro Float-A-Lyzer (Spectrum Laboratories, San Francisco, CA, USA) respectively. The chemical shift assignment of RAP74-CTD was reported previously (BMRB code 27288). Averaged ^1H and ^15N chemical shift perturbations (CSPs) were calculated as:2 ΔδAV=(Δδ1H)^2+1/5Δδ15N^2
Dissociation constants, KD, and averaged CSP amplitude, Δδmax, for δ, δstpl, γ and γstpl peptide binding to RAP74-CTD were obtained by a global fitting (nonlinear regression) of the 10% peaks with the largest averaged CSPs to the following single-site binding model (1:1 stoichiometry):3 Δδ=Δδmax([Protein]+[Peptide]+KD)−([Protein]+[Peptide]+KD)^2−4[Protein][Peptide]/2[Protein]

CSPs (ppm) induced by peptide on 15N RAP74-CTD, residue 452 (RAP74-CTD residue 452): 0.00133 ppm
CSPs (ppm) induced by peptide on 15N RAP74-CTD, residue 453 (RAP74-CTD residue 453): 0.00174 ppm
CSPs (ppm) induced by peptide on 15N RAP74-CTD, residue 454 (RAP74-CTD residue 454): 0.00213 ppm
CSPs (ppm) induced by peptide on 15N RAP74-CTD, residue 455 (RAP74-CTD residue 455): 0.00368 ppm
CSPs (ppm) induced by peptide on 15N RAP74-CTD, residue 457 (RAP74-CTD residue 457): 0.000762 ppm
CSPs (ppm) induced by peptide on 15N RAP74-CTD, residue 458 (RAP74-CTD residue 458): 0.00141 ppm
CSPs (ppm) induced by peptide on 15N RAP74-CTD, residue 459 (RAP74-CTD residue 459): 0.00114 ppm
CSPs (ppm) induced by peptide on 15N RAP74-CTD, residue 460 (RAP74-CTD residue 460): 0.00136 ppm
CSPs (ppm) induced by peptide on 15N RAP74-CTD, residue 461 (RAP74-CTD residue 461): 0.00237 ppm
CSPs (ppm) induced by peptide on 15N RAP74-CTD, residue 462 (RAP74-CTD residue 462): 0.00141 ppm
CSPs (ppm) induced by peptide on 15N RAP74-CTD, residue 463 (RAP74-CTD residue 463): 0.00149 ppm
CSPs (ppm) induced by peptide on 15N RAP74-CTD, residue 464 (RAP74-CTD residue 464): 0.002 ppm
CSPs (ppm) induced by peptide on 15N RAP74-CTD, residue 465 (RAP74-CTD residue 465): 0.000665 ppm
CSPs (ppm) induced by peptide on 15N RAP74-CTD, residue 466 (RAP74-CTD residue 466): 0.00337 ppm
CSPs (ppm) induced by peptide on 15N RAP74-CTD, residue 468 (RAP74-CTD residue 468): 0.000677 ppm
CSPs (ppm) induced by peptide on 15N RAP74-CTD, residue 469 (RAP74-CTD residue 469): 0.00178 ppm
CSPs (ppm) induced by peptide on 15N RAP74-CTD, residue 470 (RAP74-CTD residue 470): 0.00475 ppm
CSPs (ppm) induced by peptide on 15N RAP74-CTD, residue 471 (RAP74-CTD residue 471): 0.006 ppm
CSPs (ppm) induced by peptide on 15N RAP74-CTD, residue 472 (RAP74-CTD residue 472): 0.003 ppm
CSPs (ppm) induced by peptide on 15N RAP74-CTD, residue 473 (RAP74-CTD residue 473): 0.00131 ppm
CSPs (ppm) induced by peptide on 15N RAP74-CTD, residue 474 (RAP74-CTD residue 474): 0.000952 ppm
CSPs (ppm) induced by peptide on 15N RAP74-CTD, residue 475 (RAP74-CTD residue 475): 0.0011 ppm
CSPs (ppm) induced by peptide on 15N RAP74-CTD, residue 476 (RAP74-CTD residue 476): 0.00225 ppm
CSPs (ppm) induced by peptide on 15N RAP74-CTD, residue 477 (RAP74-CTD residue 477): 0.0034 ppm
CSPs (ppm) induced by peptide on 15N RAP74-CTD, residue 478 (RAP74-CTD residue 478): 0.00316 ppm
CSPs (ppm) induced by peptide on 15N RAP74-CTD, residue 484 (RAP74-CTD residue 484): 0.00185 ppm
CSPs (ppm) induced by peptide on 15N RAP74-CTD, residue 487 (RAP74-CTD residue 487): 0.009 ppm
CSPs (ppm) induced by peptide on 15N RAP74-CTD, residue 488 (RAP74-CTD residue 488): 0.000614 ppm
CSPs (ppm) induced by peptide on 15N RAP74-CTD, residue 489 (RAP74-CTD residue 489): 0.00261 ppm
CSPs (ppm) induced by peptide on 15N RAP74-CTD, residue 490 (RAP74-CTD residue 490): 0.002 ppm
CSPs (ppm) induced by peptide on 15N RAP74-CTD, residue 491 (RAP74-CTD residue 491): 0.002 ppm
CSPs (ppm) induced by peptide on 15N RAP74-CTD, residue 492 (RAP74-CTD residue 492): 0.003 ppm
CSPs (ppm) induced by peptide on 15N RAP74-CTD, residue 493 (RAP74-CTD residue 493): 0.00151 ppm
CSPs (ppm) induced by peptide on 15N RAP74-CTD, residue 494 (RAP74-CTD residue 494): 0.00469 ppm
CSPs (ppm) induced by peptide on 15N RAP74-CTD, residue 495 (RAP74-CTD residue 495): 0.00146 ppm
CSPs (ppm) induced by peptide on 15N RAP74-CTD, residue 496 (RAP74-CTD residue 496): 0.00171 ppm
CSPs (ppm) induced by peptide on 15N RAP74-CTD, residue 497 (RAP74-CTD residue 497): 0.00134 ppm
CSPs (ppm) induced by peptide on 15N RAP74-CTD, residue 498 (RAP74-CTD residue 498): 0.00172 ppm
CSPs (ppm) induced by peptide on 15N RAP74-CTD, residue 499 (RAP74-CTD residue 499): 0.000579 ppm
CSPs (ppm) induced by peptide on 15N RAP74-CTD, residue 500 (RAP74-CTD residue 500): 0.00095 ppm
CSPs (ppm) induced by peptide on 15N RAP74-CTD, residue 501 (RAP74-CTD residue 501): 0.00151 ppm
CSPs (ppm) induced by peptide on 15N RAP74-CTD, residue 503 (RAP74-CTD residue 503): 0.000881 ppm
CSPs (ppm) induced by peptide on 15N RAP74-CTD, residue 504 (RAP74-CTD residue 504): 0.002 ppm
CSPs (ppm) induced by peptide on 15N RAP74-CTD, residue 505 (RAP74-CTD residue 505): 0.002 ppm
CSPs (ppm) induced by peptide on 15N RAP74-CTD, residue 506 (RAP74-CTD residue 506): 0.008 ppm
CSPs (ppm) induced by peptide on 15N RAP74-CTD, residue 507 (RAP74-CTD residue 507): 0.004 ppm
CSPs (ppm) induced by peptide on 15N RAP74-CTD, residue 509 (RAP74-CTD residue 509): 0.00319 ppm
CSPs (ppm) induced by peptide on 15N RAP74-CTD, residue 510 (RAP74-CTD residue 510): 0.000691 ppm
CSPs (ppm) induced by peptide on 15N RAP74-CTD, residue 512 (RAP74-CTD residue 512): 0.00469 ppm
CSPs (ppm) induced by peptide on 15N RAP74-CTD, residue 513 (RAP74-CTD residue 513): 0.00335 ppm
CSPs (ppm) induced by peptide on 15N RAP74-CTD, residue 514 (RAP74-CTD residue 514): 0.001 ppm
CSPs (ppm) induced by peptide on 15N RAP74-CTD, residue 515 (RAP74-CTD residue 515): 0.00145 ppm
CSPs (ppm) induced by peptide on 15N RAP74-CTD, residue 516 (RAP74-CTD residue 516): 0.00117 ppm
CSPs (ppm) induced by peptide on 15N RAP74-CTD, residue 517 (RAP74-CTD residue 517): 0.000251 ppm
Sequence: KKPGASLAALQALQALQAAQAAKKY [(P3-7)2, Gln-based single α-helix scaffold peptide]
